Measured values from patent US6878731B2, “Imidazole alkaloids from Lepidium meyenii and methods of usage” (Pure World Botanicals, Inc., priority 2002, dated 2005).

Tests used:
[1] = tested on: A-549 (human lung carcinoma); conditions: A-549 cell line
[2] = tested on: UMUC3 (human bladder carcinoma); conditions: UMUC3 cell line
[3] = tested on: HT-29 (human colon adenocarcinoma); conditions: HT-29 cell line
[4] = tested on: PC-3 (human prostate adenocarcinoma); conditions: PC-3 cell line
[5] = tested on: PACA2 (human pancreatic adenocarcinoma); conditions: PACA2 cell line
[6] = tested on: A4982LM (human kidney carcinoma); conditions: A4982LM cell line
[7] = tested on: MDA231 (human breast carcinoma); conditions: MDA231 cell line
[8] = tested on: FDIGROV (human ovarian carcinoma); conditions: FDIGROV cell line

Compound	Cytotoxic activity ED50, A-549 [1]	Cytotoxic activity in words, A-549 [1]	Cytotoxic activity ED50, UMUC3 [2]	Cytotoxic activity ED50, HT-29 [3]	Cytotoxic activity in words, HT-29 [3]	Cytotoxic activity ED50, PC-3 [4]	Cytotoxic activity in words, PC-3 [4]	Cytotoxic activity ED50, PACA2 [5]	Cytotoxic activity ED50, A4982LM [6]	Cytotoxic activity in words, A4982LM [6]	Cytotoxic activity ED50, MDA231 [7]	Cytotoxic activity ED50, FDIGROV [8]	ED50, FDIGROV [8]
Cc1c(C)[n+](Cc2ccccc2)cn1Cc1ccccc1.[Cl-] [Compound 1, 1,3-bis(phenylmethyl)-4,5-dimethyl-1H-imidazlium chloride]	>10 µg/mL	inactive	>10 µg/mL	>10 µg/mL	inactive	>10 µg/mL	inactive	>10 µg/mL	>10 µg/mL	inactive	>10 µg/mL	7.39 µg/mL	7390 µg/mL
Cc1c(C)[n+](Cc2ccccc2)c(C)n1Cc1ccccc1.[Cl-] [Compound 2, 1,3-bis(phenylmethyl)-2,4,5-trimethyl-1H-imidazlium chloride]	>10 µg/mL	inactive	6.47 µg/mL	>10 µg/mL	inactive	>10 µg/mL	inactive	1.38 µg/mL	>10 µg/mL	inactive	1.66 µg/mL	5.26 µg/mL	5260 µg/mL
